Legend:
κ opioid receptor = κ opioid receptor (Homo sapiens (Human), UniProt P41145); assay: κ-opioid receptor [35S]GTPγS functional assay, U-2 OS cells; type: biochemical; conditions: for Emax: relative to U69,593, U-2 OS cells
Protocol: κ-Opioid Receptor Functional Assay Procedures: Functional [^35S]GTPγS binding assays were conducted as follows. κ opioid receptor membrane solution was prepared by sequentially adding final concentrations of 0.026 μg/μl κ membrane protein (in-house), 10 μg/mL saponin, 3 μM GDP and 0.20 nM [^35S]GTPγS to binding buffer (100 mM NaCl, 10 mM MgCl2, 20 mM HEPES, pH 7.4) on ice. The prepared membrane solution (190 μl/well) was transferred to 96-shallow well polypropylene plates containing 10 μl of 20× concentrated stock solutions of agonist prepared in DMSO. Plates were incubated for 30 min at a temperature of about 25° C. with shaking. Reactions were terminated by rapid filtration onto 96-well Unifilter GF/B filter plates (Perkin Elmer, Shelton, Conn.) using a 96-well tissue harvester (Packard) and followed by three filtration washes with 200 μl ice-cold binding buffer (10 mM NaH2PO4, 10 mM Na2HPO4, pH 7.4). Filter plates were subsequently dried at 50° C. for 2-3 hours. Fifty μl/well scintillation cocktail (Perkin Elmer, Shelton, Conn.) was added and plates were counted in a Packard Top-Count for 1 min/well.
κ-Opioid Receptor Functional Data: κ GTP EC50 is the concentration of a compound providing 50% of the maximal response for the compound at a κ receptor.
κ GTP Emax (%) is the maximal effect elicited by a compound relative to the effect elicited by U69,593.
(§1) The following TABLE 3 provides results on the activity response of certain Compounds of the Invention at the μ- and κ-opioid receptors determined as described above using U-2 OS cells.

μ-opioid receptor = μ-opioid receptor (Homo sapiens (Human), UniProt P35372); assay: μ-opioid receptor [35S]GTPγS functional assay, U-2 OS cells; type: biochemical; conditions: for Emax: relative to DAMGO, U-2 OS cells
Protocol: μ-Opioid Receptor Functional Assay Procedures: [^35S]GTPγS functional assays were conducted using freshly thawed μ-receptor membranes prepared in-house from a cell line expressing recombinant μ opioid receptor in a HEK-293, CHO or U-2 OS cell background, or purchased from a commercial source (Perkin Elmer, Shelton, Conn.; or DiscovRx, Fremont, Calif.). Assay reactions were prepared by sequentially adding the following reagents to binding buffer (100 mM NaCl, 10 mM MgCl2, 20 mM HEPES, pH 7.4) on ice (final concentrations indicated): membrane protein (0.026 mg/mL), saponin ([…]), GDP ([…]) and [^35S]GTPγS (0.20 nM; Perkin Elmer, Shelton, Conn.). The prepared membrane solution (190 μl/well) was transferred to 96-shallow well polypropylene plates containing 10 μl of 20× concentrated stock solutions of the agonist [D-Ala^2, N-methyl-Phe^4 Gly-ol^5]-enkephalin (DAMGO) prepared in dimethyl sulfoxide (DMSO). Plates were incubated for 30 min at about 25° C. with shaking. Reactions were terminated by rapid filtration onto 96-well Unifilter GF/B filter plates (Perkin Elmer, Shelton, Conn.) using a 96-well tissue harvester (Perkin Elmer, Shelton, Conn.) followed by three filtration washes with 200 μl of ice-cold wash buffer (10 mM NaH2PO4, 10 mM Na2HPO4, pH 7.4). Filter plates were subsequently dried at 50° C. for 2-3 hours. BetaScint scintillation cocktail (Perkin Elmer, Shelton, Conn.) was added (50 μl/well) and plates were counted using a Packard Top-Count for 1 min/well. Data were analyzed using the sigmoidal dose-response curve fitting functions in GraphPad PRISM v. 3.0, or an in-house function for non-linear, sigmoidal dose-response curve-fitting.
μ-Opioid Receptor Functional Data: μ GTP EC50 is the concentration of a compound providing 50% of the maximal response for the compound at a μ-opioid receptor.
μ GTP Emax (%) is the maximal effect elicited by a compound relative to the effect elicited by DAMGO, a standard μ agonist. Generally, the μ GTP Emax (%) value measures the efficacy of a compound to treat or prevent pain or other Conditions.
as §1

| SMILES | EC50 (κ opioid receptor) [nM] | Emax (κ opioid receptor) [%] | EC50 (μ-opioid receptor) [nM] | Emax (μ-opioid receptor) [%] |
| --- | --- | --- | --- | --- |
| O=C1N[C@]2(CC[C@@]3(O)[C@H]4Cc5ccc(O)cc5[C@@]3(CCN4CC3CC3)C2)C(=O)N1Cc1ccc(O)cc1 [Compound 47, (4S,4b′R,8a′S,9′R)-11′-(cyclopropylmethyl)-3′,8a′-dihydroxy-1-(4-hydroxybenzyl)-8′,8a′,9′,10′-tetrahydro-5′H,7′H-spiro[imidazolidine-4,6′-[9,4b](epiminoethano)-phenantrene]-2,5-dione] | 1.21 ± 0.11 | 104 ± 3.67 | 4.66 ± 0.89 | 49 ± 1.53 |
| O=C1NC(=O)[C@@]2(CC[C@@]3(O)[C@H]4Cc5ccc(O)cc5[C@@]3(CCN4CC3CC3)C2)N1CC(F)(F)F [Compound 64, (4S,4b′R,8a′S,9′R)-11′-(cyclopropylmethyl)-3′,8a′-dihydroxy-3-(2,2,2-trifluoroethyl)-8′,8a′,9′,10′-tetrahydro-5′H,7′H-spiro[imidazolidine-4,6′-[9,4b](epiminoethano)-phenantrene]-2,5-dione] | 22.2 ± 1.46 | 106 ± 2.85 | 2.76 ± 0.5 | 14 ± 0.58 |
| CCN1C(=O)N(Cc2ccc(O)cc2)C(=O)[C@@]12CC[C@@]1(O)[C@H]3Cc4ccc(O)cc4[C@@]1(CCN3CC1CC1)C2 [Compound 48, (4S,4b′R,8a′S,9′R)-11′-(cyclopropylmethyl)-3-ethyl-3′,8a′-dihydroxy-1-(4-hydroxybenzyl)-8′,8a′,9′,10′-tetrahydro-5′H,7′H-spiro[imidazolidin-4,6′-[9,4b](epiminoethano)-phenantrene]-2,5-dione] | 2.61 ± 0.3 | 105 ± 1.2 | 0.82 ± 0.093 | 12 ± 0.58 |
| COc1ccc2c(c1)[C@]13CCN(CCCc4ccccc4)[C@H](C2)[C@]1(O)CC[C@@]1(C3)NC(=O)NC1=O [Compound 26, (4bR,4′S,8aS,9R)-8a-hydroxy-3-methoxy-11-(3-phenylpropyl)-5,7,8,8a,9,10-hexahydrospiro[9,4b-(epiminoethano)phenanthrene-6,4′-imidazolidine]-2′,5′-dione] | > 20000 | 63 ± 8.72 | > 20000 | 26.7 ± 11.7 |
| O=C1NC(=O)[C@@]2(CC[C@@]3(O)[C@H]4Cc5ccc(O)cc5[C@@]3(CCN4CCCc3ccccc3)C2)N1 [Compound 36, (4bR,4′S,8aS,9R)-3,8a-dihydroxy-11-(3-phenylpropyl)-5,7,8,8a,9,10-hexahydrospiro[9,4b-(epiminoethano)phenanthrene-6,4′-imidazolidine]-2′,5′-dione] | 2500 ± 277 | 84.3 ± 2.6 | 442 ± 21.2 | 77.7 ± 3.53 |
| CN1CC[C@]23C[C@@]4(CC[C@@]2(O)[C@H]1Cc1ccc(O)cc13)C(=O)NC(=O)N4C [Compound 70, (4S,4b′R,8a′S,9′R)-3′,8a′-dihydroxy-3,11′-dimethyl-8′,8a′,9′,1′-tetrahydro-5′H,7′H-spiro[imidazolidine-4,6′-[9,4b](epiminoethano)phenantrene]-2,5-dione] | 322 ± 28.1 | 118 ± 9.61 | 23.4 ± 2.03 | 99 ± 1.53 |
| COc1ccc2c(c1)[C@]13CCN(CCC(F)(F)F)[C@H](C2)[C@]1(O)CC[C@@]1(C3)NC(=O)NC1=O [Compound 17, (4bR,4′S,8aS,9R)-8a-hydroxy-3-methoxy-11-(3,3,3-trifluoropropyl)-5,7,8,8a,9,10-hexahydrospiro[9,4b-(epiminoethano)phenanthrene-6,4′-imidazolidine]-2′,5′-dione] | > 20000 | 83.7 ± 6.69 | > 20000 | 18.5 ± 6.14 |
| COc1ccc2c(c1)[C@]13CCN(CC4CCCCC4)[C@H](C2)[C@]1(O)CC[C@@]1(C3)NC(=O)NC1=O [Compound 23, (4bR,4′S,8aS,9R)-11-(cyclohexylmethyl)-8a-hydroxy-3-methoxy-5,7,8,8a,9,10-hexahydrospiro[9,4b-(epiminoethano)phenanthrene-6,4′-imidazolidine]-2′,5′-dione] | > 20000 | 98 ± 8.89 | > 20000 | 11 |
| O=C1NC(=O)[C@@]2(CC[C@@]3(O)[C@H]4Cc5ccc(O)cc5[C@@]3(CCN4CC3CCCCC3)C2)N1 [Compound 27, (4bR,4′S,8aS,9R)-11-(cyclohexylmethyl)-3,8a-dihydroxy-5,7,8,8a,9,10-hexahydrospiro[9,4b-(epiminoethano)phenanthrene-6,4′-imidazolidine]-2′,5′-dione] | 2080 ± 406 | 33.3 ± 3.53 | 12800 ± 3860 | 21.3 ± 1.86 |
| O=C1NC(=O)[C@@]2(CC[C@@]3(O)[C@H]4Cc5ccc(O)cc5[C@@]3(CCN4CCCC(F)(F)F)C2)N1 [Compound 34, (4bR,4′S,8aS,9R)-3,8a-dihydroxy-11-(4,4,4-trifluorobutyl)-5,7,8,8a,9,10-hexahydrospiro[9,4b-(epiminoethano)phenanthrene-6,4′-imidazolidine]-2′,5′-dione] | 2240 ± 120 | 87.7 ± 3.28 | 869 ± 131 | 47 ± 2.08 |
| CCN1CC[C@]23C[C@]4(CC[C@@]2(O)[C@H]1Cc1ccc(OC)cc13)NC(=O)NC4=O [Compound 15, (4bR,4′S,8aS,9R)-11-ethyl-8a-hydroxy-3-methoxy-5,7,8,8a,9,10-hexahydrospiro[9,4b-(epiminoethano)phenanthrene-6,4′-imidazolidine]-2′,5′-dione] | > 20000 | 65.3 ± 7.86 | > 20000 | 8 |
| COc1ccc2c(c1)[C@]13CCN(CCC(C)C)[C@H](C2)[C@]1(O)CC[C@@]1(C3)NC(=O)NC1=O [Compound 22, (4bR,4′S,8aS,9R)-8a-hydroxy-11-isopentyl-3-methoxy-5,7,8,8a,9,10-hexahydrospiro[9,4b-(epiminoethano)phenanthrene-6,4′-imidazolidine]-2′,5′-dione] | > 20000 | 91.3 ± 6.57 | 3960 ± 1410 | 46 ± 6 |
| O=C1NC(=O)[C@@]2(CC[C@@]3(O)[C@H]4Cc5ccc(O)cc5[C@@]3(CCN4CC(F)F)C2)N1 [Compound 38, (4bR,4′S,8aS,9R)-11-(2,2-difluoroethyl)-3,8a-dihydroxy-5,7,8,8a,9,10-hexahydrospiro[9,4b-(epiminoethano)phenanthrene-6,4′-imidazolidine]-2′,5′-dione] | 441 ± 144 | 99 ± 3.51 | > 20000 | 12 ± 1 |
| CCN1C(=O)N(CC)[C@]2(CC[C@@]3(O)[C@H]4Cc5ccc(O)cc5[C@@]3(CCN4CC3CC3)C2)C1=O [Compound 46, (4S,4b′R,8a′S,9′R)-11′-(cyclopropylmethyl)-1,3-diethyl-3′,8a′-dihydroxy-8′,8a′,9′,10′-tetrahydro-5′H,7′H-spiro[imidazolidine-4,6′-[9,4b](epiminoethano)phenantrene]-2,5-dione] | 1.57 ± 0.19 | 96.7 ± 3.67 | 1.74 ± 0.22 | 10.7 ± 0.33 |
| C=C(C)CCN1CC[C@]23C[C@]4(CC[C@@]2(O)[C@H]1Cc1ccc(O)cc13)NC(=O)NC4=O [Compound 37, (4bR,4′S,8aS,9R)-3,8a-dihydroxy-11-(3-methylbut-3-en-1-yl)-5,7,8,8a,9,10-hexahydrospiro[9,4b-(epiminoethano)phenanthrene-6,4′-imidazolidine]-2′,5′-dione] | 33.5 ± 9.67 | 101 ± 1.76 | 18.7 ± 2.53 | 92 ± 5 |
| O=C1NC(=O)[C@@]2(CC[C@@]3(O)[C@H]4Cc5ccc(O)cc5[C@@]3(CCN4CC(F)(F)F)C2)N1 [Compound 32, (4bR,4′S,8aS,9R)-3,8a-dihydroxy-11-(2,2,2-trifluoroethyl)-5,7,8,8a,9,10-hexahydrospiro[9,4b-(epiminoethano)phenanthrene-6,4′-imidazolidine]-2′,5′-dione] | 523 ± 180 | 104 ± 1.2 | > 20000 | 1.5 |

Reference: US8987287B2, “Spirocyclic morphinans and their use” (Purdue Pharma L.P., priority 2012, dated 2015)
